Test results reported in patent US9567304B2, “Quinazolinedione derivative” (Chugai Seiyaku Kabushiki Kaisha, priority 2012, dated 2017).

Tested on: human endometrial cancer cell line MFE-280
Assay: Measurement of antitumor effect in MFE-280 cancer-bearing mice
Format: in vivo
Details: 200 mg/kg, orally once daily, MFE-280 subcutaneous xenograft in BALB/c nude mice, 11th day after start of administration

CCS(=O)(=O)c1ccc(Cl)cc1Cn1c(=O)[nH]c2c(Cl)c(CN3CCNCC3)c(C(F)(F)F)cc2c1=O [Compound F-1, 8-Chloro-3-(5-chloro-2-ethanesulfonyl-benzyl)-7-piperazin-1-ylmethyl-6-trifluoromethyl-1H-quinazoline-2,4-dione]
Antitumor effect TGI after 11 days (%): 61%
